# Measured values taken from a melting point compilation (Tetko et al.; mined from patent text by program, amines drawn as free bases though some values may be those of a salt).
row,SMILES,melting point
1,Cc1nn(-c2cccc(C(F)(F)F)c2)cc1C(=O)O,166 to 168 °C
2,CN1C[C@@H](C(=O)OC(C)(C)C)N(C(=O)OCc2ccccc2)C1=O,102 to 103 °C
3,NC(=O)C(CCc1cc(Cl)ccc1N1CCCCC1)c1ccc(C(=O)O)cc1 (centres undefined),192 to 195 °C
4,BrCCCCCCCc1ccc(OCc2ccccc2)cc1,32 to 34 °C
5,Cc1coc2c1C(=O)CC(c1ccc(F)cc1)C2 (centres undefined),81 to 82 °C
6,CC1(C)Nc2cc(F)c(F)cc2-n2cccc21,123 to 125 °C
7,COc1ccc(OC)c(C2=Nc3ccc(N4CCCC4)cc3C(=O)C2)c1,272 to 274 °C
8,COc1cn(Cc2ccc(OC)c(OC)c2)c(=O)o1,99.5 to 102 °C
9,CC(=O)NC1CCNC(c2ncccc2Cl)C1 (centres undefined),118 to 120 °C
10,CC(C)n1c(Cl)nc2ccccc21,58 to 60 °C
11,CC(=O)N[C@@H]1CCCC[C@H]1Nc1nc(Nc2ccc3c(c2)C(C)(C)CCC(=O)N3)ncc1Cl,227 °C
12,CCN(CC)C(=O)COc1cccc(-n2nc(-c3ccc(F)cc3)c3cccnc32)c1,102 to 105 °C
13,NC1COC2=CC3=C(OCCC3)C(=O)C21 (centres undefined),> 260 °C
14,Cc1ncccc1NC(=NC#N)NC(NC(=O)CCCCc1ccccc1)C(C)(C)C (centres undefined),133 to 134 °C
15,O=C1CCc2ccc(OCCCCN3CCCN(c4cccc(Cl)c4Cl)CC3)cc2N1,88 to 89 °C
16,N#Cc1ncccc1C(=O)OCC(Cl)(Cl)Cl,103 °C
17,CN(CCO)c1cc2c(=O)n(NS(C)(=O)=O)c(=O)[nH]c2cc1C(F)(F)F,220 to 224 °C
18,COCCOc1ccc(C#CC2(O)CN3CCC2CC3)cc1 (centres undefined),148 to 149 °C
19,CC1(C(=O)O)Oc2ccc(Cl)cc2C(C)(c2ccccc2)O1 (centres undefined),181 °C
20,CCCN(Cc1ccc(-c2ccccc2-c2nc(=O)o[nH]2)cc1)c1nn(C)cc1C(=O)OCC,182 to 183 °C
21,CCOC(=O)C(=NO)c1c[nH]c2c(CC)cccc12,167 to 169 °C
22,CCOCc1nc2c(N)nc3ccccc3c2n1CC1(N(C(N)=O)C(C)C)CCCCC1,135 to 160 °C
23,CCOC(=O)c1cnn(C)c1C(=O)Nc1ccn2nc(-c3cccnc3F)nc2c1,249 to 251 °C
24,CO[C@H]1O[C@@H](C)[C@H]2[C@@H]1C[C@H]1CCCC[C@@H]1[C@H]2CS(=O)(=O)c1ccccc1,136 to 137 °C
25,CNC(=O)C(=NOC)c1ccccc1COc1ccc(Sc2ccccc2)cn1,95 to 96 °C
26,CS(=O)(=O)N[C@@H]1CCCC[C@H]1Nc1nc(Nc2ccc3c(c2)CNCCS3)ncc1Cl,141 to 143 °C
27,CS(=O)(=O)N1CCC(N)CC1,65.3 to 65.7 °C

row,SMILES,melting point
1,Cc1cc(C)c2c(c1C)OCC2c1ccc(C=O)cc1 (centres undefined),87 to 88 °C
2,CC(=O)NC1=NN(c2ccc(Cl)cc2)C(C)C1 (centres undefined),167 to 169 °C
3,C(=C\c1nc(COc2cccc(CCCn3ccnc3)c2)co1)/c1ccccc1,86 to 87 °C
4,CCCCCCCCCCCCCCCC(O)=S,64 to 66 °C
5,CC(C)(C)c1cccc2nc(C(F)(F)F)[nH]c12,149 to 152 °C
6,CC1CC(=O)Nc2nc(OCCCCN3CCN(c4cccc(Cl)c4Cl)CC3)ccc21 (centres undefined),53 to 54 °C
7,Cc1cn(-c2cc(NC(=O)c3ccc(C)c(C#Cc4ccc(NC(C)C)nn4)c3)cc(C(F)(F)F)c2)cn1,192 to 194 °C
8,CN(N)C(=O)NCC(F)F,81 to 84 °C
9,Cc1ccc2onc(O)c2c1,95 to 97 °C
10,Cc1ccc2c(c1)Oc1ncc(N)cc1C(=O)N2C,191 to 193 °C
11,CNC(=O)Oc1c(OC)cc(OC)c2ccccc12,131 to 133 °C
12,Fc1cccc(F)c1-c1ccc2ncccc2c1,112 to 113 °C
13,COc1ccc(Cl)cc1C(=O)NCCC1CCN(S(=O)(=O)NC(=O)NC2CC2)CC1,138 to 139 °C
14,Cc1c(O)ccc2c(=O)c(-c3ccc(Cl)cc3)coc12,275 °C
15,CCOC(=O)Cc1c2c(nn1CC)c(=O)[nH]c1ccccc12,233 to 235 °C
16,N#CCn1nnc(NC(=O)C(c2ccccc2)c2ccccc2)n1,173 to 174 °C
17,CN1CC=C(c2ccnc(C(=O)N(O)Cc3ccccc3)c2)CC1,135 to 155 °C
18,OCC#Cc1ccccn1,78 to 80 °C
19,O=C(N[C@@H]1CCc2c(Br)ccc(N3CCNCC3)c2C1)c1ccc(N2CCOCC2)cc1,228 to 229 °C
20,CCOP(=O)(Cc1nnc2c(=O)[nH]c3ccc(C(F)(F)F)cc3n12)OCC,204 to 208 °C
21,Cc1nccn1-c1nc(-c2ccc(Cl)cc2)c(CCCn2cccn2)o1,129 to 130 °C
22,COc1cc(Nc2c(C#N)cnc3cc(Br)ccc23)c(Cl)cc1C,215 to 217 °C
23,CCOC(=O)c1cc2c(nc1N)CCN(Cc1ccccc1)C2,141 to 143 °C
24,CN1CCC(c2c[nH]c3ccc(NC(=O)c4cccc(Cl)c4)nc23)CC1,110 to 111 °C
25,COc1ncccc1Nc1c(NC(NC(=O)c2cccc(C)c2)C(C)(C)Cc2ccccc2)c(=O)c1=O (centres undefined),233 to 235 °C
26,COc1c(I)c(OC)c2ccccc2c1C(=O)OCc1ccccc1,80 to 83 °C
27,NC(CO)C(c1ccccc1)c1ccccc1 (centres undefined),107 to 108 °C
